From patent US20040072737A1, “Echinocandin derivatives, their method of preparation and their application as anti-fungal agents” (Aventis Pharma S.A., priority 1997, published 2004)

test system: Glucane Synthesis of Candida Albicans (membranes of Candida albicans); experiment: Inhibition of the glucane synthesis of Candida albicans (14C-UDP glucose incorporation by purified membranes); type: biochemical; details: Candida albicans membrane proteins, 25° C., 1 hour, result in words
Experimental: A—Inhibition of the Glucane Synthesis of Candida Albicans.
The membranes of Candida albicans are purified according to the process described by Tang and al Antimicrob. Agents Chemother 35, 99-103, 1991. 22.5 μg of membrane proteins are incubated in a mixture of 2 Mm of 14C-UDP glucose (specific activity=0.34 mCi./mmol, 50 μg of α-amylase, 1 Mm of dithiotreitol (DTT), 1 Mm EDTA, 100 Mm NaF, 7 μM of GTP-γ-S, 1M of sucrose and 5 oMm OF Ttris-HCL (pH 7.8) in a volume of 100 μl. The medium is incubated at 25° C. for 1 hour and the reaction terminated by addition of TCA to a final concentration of 5%. The reaction medium is transferred onto a pre-humidified glass fibre filter. The filter is washed, dried and its radioactivity is counted.
Mulundocandin is used as positive control.
The control of the medium is carried out with the same quantity of DMSO 1%.

| Substance | Inhibition of the glucane synthesis of Candida albicans |
| --- | --- |
| (±) Trifluoroacetate of 1-[4-[(aminoiminomethyl) hydrazono]-N2-(12-methyl-1-oxotetradecyl)-L-ornithine]4-[4-(4-hydroxyphenyl)-L-threonine]-5-L serine echinocandin B [Example 11] | good activity |
| Trifluoroacetate of 1-[4-[(2-aminoethyl) amino]-N2-(12-methyl-1-oxotetradecyl)-L-ornithine]4-[4-(4-hydroxyphenyl)-L-threonine]-5-L serine echinocandin B (isomer A and isomer B) [Example 9] | good activity |
| Trifluoroacetate of 1-[4-[(2-aminoethyl) amino]N2-[[4′-(octyloxy)[1.1′-biphenyl]-4-[carbonyl]-L-ornithine]4-[4-(4-(4-hydroxyphenyl)-L-threonine]-5-L serine echinocandin B (isomer A) [Example 14] | good activity |
